Experimental data from patent publication US20020169101A1, “Treatment of sexual dysfunction” (priority 1999, published 2002).
Read-outs that look alike come from different tables or passages of the source.

Experiments:
human NMB receptor (BB1) = target: T1, human NMB receptor (BB1) (Homo sapiens, UniProt P28336); assay: BB1 binding assay ([125I][Tyr4]bombesin displacement, CHO-K1 membranes); settings: for Ki: Table 1, human NMB receptor binding affinity, Ki from IC50 by Cheng-Prusoff, read-out: NMB Ki
T1 construct: expressed in transfected cells; membranes prepared from the cells
Procedure, shortened: (§1)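 Competition against <0.1 nM [125I][Tyr4]bombesin, 60 min for the NMB receptor and 90 min for the GRP receptor, using homogenised membranes of human-receptor-expressing CHO-K1 cells in pH 7.4 Tris buffer. Bound label was filtered and gamma-counted, with 1 μM bombesin as nonspecific. Ki values came from IC50 via Cheng-Prusoff.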

human GRP receptor (BB2) = target: T2, human GRP receptor (BB2) (Homo sapiens, UniProt P30550); assay: BB2 binding assay ([125I][Tyr4]bombesin displacement, CHO-K1 membranes); settings: for Ki: Table 1, human GRP receptor binding affinity, Ki from IC50 by Cheng-Prusoff, read-out: GRP Kj
T2 construct: expressed in transfected cells; membranes prepared from the cells
Procedure, shortened: as §1

[1] = second 'TABLE 4', N-terminal urethane derivatives of Intermediate III-7
[2] = Table 3, N-acyl derivatives of Intermediate III-7

T1 sequence (P28336 whole entry): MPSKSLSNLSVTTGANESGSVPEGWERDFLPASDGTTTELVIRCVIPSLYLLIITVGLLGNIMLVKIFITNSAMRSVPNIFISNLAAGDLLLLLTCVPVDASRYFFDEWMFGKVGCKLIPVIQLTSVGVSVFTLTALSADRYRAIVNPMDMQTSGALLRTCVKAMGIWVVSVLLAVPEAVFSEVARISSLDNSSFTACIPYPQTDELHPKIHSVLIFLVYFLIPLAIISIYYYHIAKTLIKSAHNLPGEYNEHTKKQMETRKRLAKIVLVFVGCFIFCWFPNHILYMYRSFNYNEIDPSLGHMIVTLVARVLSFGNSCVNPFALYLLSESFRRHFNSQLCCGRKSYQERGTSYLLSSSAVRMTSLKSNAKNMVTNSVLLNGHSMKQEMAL
T2 sequence (P30550 whole entry): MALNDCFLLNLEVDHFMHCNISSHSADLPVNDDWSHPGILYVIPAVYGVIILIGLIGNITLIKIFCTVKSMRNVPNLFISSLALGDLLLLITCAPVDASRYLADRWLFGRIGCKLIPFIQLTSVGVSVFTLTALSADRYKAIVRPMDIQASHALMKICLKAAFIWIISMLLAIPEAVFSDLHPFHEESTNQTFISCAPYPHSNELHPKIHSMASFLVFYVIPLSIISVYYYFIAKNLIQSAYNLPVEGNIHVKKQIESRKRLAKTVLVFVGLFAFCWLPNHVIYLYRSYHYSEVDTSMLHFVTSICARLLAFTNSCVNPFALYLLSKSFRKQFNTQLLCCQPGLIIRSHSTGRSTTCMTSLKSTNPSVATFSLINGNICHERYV

Row | Compound | Ki (human NMB receptor (BB1)) [nM] | melting point [°C] | IC50 (human NMB receptor (BB1)) [nM] | IC50 (human GRP receptor (BB2)) [nM] | also measured
1 | COCC1(CNC(=O)[C@](C)(Cc2c[nH]c3ccccc23)Nc2nc(-c3ccc([N+](=O)[O-])cc3)co2)CCCCC1 [Example 10, (S)-3-(1H-Indol-3-yl)-N-(1-methoxymethyl-cyclohexylmethyl)-2-methyl-2-[4-(4-nitro-phenyl)-oxazol-2-ylamino]-propionamide] | 469 | 189 to 192 | – | – | –
2 | C[C@@](Cc1c[nH]c2ccccc12)(Nc1nc(-c2ccc([N+](=O)[O-])cc2)co1)C(=O)NCC(=O)c1ccccc1 [Example 11, (S)-3-(1H-Indol-3-yl)-2-methyl-2-[4-(4-nitro-phenyl)-oxazol-2-ylamino]-N-(2-oxo-2-phenyl-ethyl)-propionamide] | 5580 | 80 to 90 | – | – | –
3 | COc1ccc(C2(CNC(=O)[C@](C)(Cc3c[nH]c4ccccc34)Nc3nc(-c4ccc(C#N)cc4)co3)CCCCC2)nc1 [Example 13, (S)-2-[4-(4-Cyano-phenyl)-oxazol-2-ylamino]-3-(1H-indol-3-yl)-N-[1-(5-methoxy-pyridin-2-yl)-cyclohexylmethyl]-2-methyl-propionamide] | 19 | 105 to 108 | – | – | Ki (human GRP receptor (BB2)): 1380 nM
4 | COc1ccc(C2(CNC(=O)[C@](C)(Cc3c[nH]c4ccccc34)Nc3nc(-c4ccccc4)co3)CCCCC2)nc1 [Example 14, (S)-3-(1H-Indol-3-yl)-N-[1-(5-methoxy-pyridin-2-yl)-cyclohexylmethyl]-2-methyl-2-(4-phenyl-oxazol-2-ylamino)-propionamide] | 106 | 85 to 90 | – | – | Ki (human GRP receptor (BB2)): 1190 nM
5 | COc1ccc(C2(CNC(=O)[C@](C)(Cc3c[nH]c4ccccc34)Nc3nc(-c4ccc([N+](=O)[O-])cc4)cs3)CCCCC2)nc1 [Example 16] | 15 | 110 to 114 | – | – | –
6 | C[C@@](Cc1c[nH]c2ccccc12)(Nc1nc2ccccc2o1)C(=O)NCC1(c2ccccn2)CCCCC1 [Example 17, (S)-2-(Benzooxazol-2-ylamino)-3-(1H-indol-3-yl)-2-methyl-N-(1-pyridin-2-yl-cyclohexylmethyl)-propionamide] | 2080 | 198 to 200 | – | – | –
7 | C[C@@](Cc1c[nH]c2ccccc12)(Nc1ccncc1)C(=O)NCC1(c2ccccn2)CCCCC1 [Example 18, (S)-3-(1H-Indol-3-yl)-2-methyl-2-(pyridin-4-ylamino)-N-(1-pyridin-2-yl-cyclohexylmethyl)-propionamide] | 303 | 180 to 195 | – | – | –
8 | C[C@@](Cc1c[nH]c2ccccc12)(Nc1cncc2ccccc12)C(=O)NCC1(c2ccccn2)CCCCC1 [Example 19, (S)-3-(1H-Indol-3-yl)-2-(isoquinolin-4-ylamino)-2-methyl-N-(1-pyridin-2-yl-cyclohexylmethyl)-propionamide] | 1250 | 98 to 101 | – | – | –
9 | C[C@@](Cc1c[nH]c2ccccc12)(Nc1cncnc1)C(=O)NCC1(c2ccccn2)CCCCC1 [Example 20, (S)-3-(1H-Indol-3-yl)-2-methyl-N-(1-pyridin-2-yl-cyclohexylmethyl)-2-(pyrimidin-5-ylamino)-propionamide] | 3160 | 95 to 98 | – | – | –
10 | Cc1cccc(N[C@@](C)(Cc2c[nH]c3ccccc23)C(=O)NCC2(c3ccccn3)CCCCC2)c1 [Example 22, (S)-3-(1H-Indol-3-yl)-2-methyl-N-(1-pyridin-2-yl-cyclohexylmethyl)-2-m-tolylamino-propionamide] | 653 | 70 to 75 | – | – | –
11 | O=C(NCC1(c2ccccn2)CCCCC1)[C@@H](Cc1ccccc1)Nc1ccccc1 [Example 24, (R)-3-Phenyl-2-phenylamino-N-[1 1-pyridin-2-yl-cyclohexylmethyl)-propionamide] | 137 | 113 to 115 | – | – | –
12 | C[C@@](Cc1c[nH]c2ccccc12)(NCc1ccc([N+](=O)[O-])cc1)C(=O)NCC1(c2ccccn2)CCCCC1 [Example 27, (S)-3-(1H-Indol-3-yl)-2-methyl-2-(4-nitro-benzylamino)-N-(1-pyridin-2-yl-cyclohexylmethyl)-propionamide] | 652 | 58 to 60 | – | – | –
13 | C[C@@](Cc1c[nH]c2ccccc12)(NC(=O)OCc1cccc(Oc2ccccc2)c1)C(=O)NCC1(c2ccccn2)CCCCC1 [Example 106, {(S)-2-(1H-Indol-3-yl)-1-methyl-1-[(1-pyridin-2-yl-cyclohexylmethyl)-carbamoyl]-ethyl}-carbamic acid 3-phenoxy-benzyl ester] | – | – | – | – | IC50 (human NMB receptor (BB1); [1]): 1350 nM; IC50 (human GRP receptor (BB2); [1]): > 10000 nM
14 | C[C@@](Cc1c[nH]c2ccccc12)(NC(=O)OCc1cccc(C(F)(F)F)c1)C(=O)NCC1(c2ccccn2)CCCCC1 [Example 107, {(S)-2-(1H-Indol-3-yl)-1-methyl-1-[(1-pyridin-2-yl-cyclohexylmethyl)-carbamoyl]-ethyl}-carbamic acid 3-trifluoromethyl-benzyl ester] | – | – | – | – | IC50 (human NMB receptor (BB1); [1]): 182 nM; IC50 (human GRP receptor (BB2); [1]): > 10000 nM
15 | Cc1ccc(COC(=O)N[C@@](C)(Cc2c[nH]c3ccccc23)C(=O)NCC2(c3ccccn3)CCCCC2)cc1 [Example 108, {(S)-2-(1H-Indol-3-yl)-1-methyl-1-[(1-pyridin-2-yl-cyclohexylmethyl)-carbamoyl]-ethyl}-carbamic acid 4-methyl-benzyl ester] | – | – | – | – | IC50 (human NMB receptor (BB1); [1]): 1080 nM; IC50 (human GRP receptor (BB2); [1]): > 10000 nM
16 | C[C@@](Cc1c[nH]c2ccccc12)(NC(=O)OCc1cccc(Cl)c1Cl)C(=O)NCC1(c2ccccn2)CCCCC1 [Example 109, {(S)-2-(1H-Indol-3-yl)-1-methyl-1-[(1-pyridin-2-yl-cyclohexylmethyl)-carbamoyl]-ethyl}-carbamic acid 2,3-dichloro-benzyl ester] | – | – | – | – | IC50 (human NMB receptor (BB1); [1]): 152 nM; IC50 (human GRP receptor (BB2); [1]): > 10000 nM

Row | Compound | Ki (human NMB receptor (BB1)) [nM] | melting point [°C] | IC50 (human NMB receptor (BB1)) [nM] | IC50 (human GRP receptor (BB2)) [nM] | also measured
17 | C[C@@](Cc1c[nH]c2ccccc12)(NS(=O)(=O)Cc1ccccc1)C(=O)NCC1(c2ccccn2)CCCCC1 [Example 111, (S)-3-(1H-indol-3-yl)-2-methyl-2-phenylmethanesulfonylamino-N-(1-pyridin-2-yl-cyclohexylmethyl)-propionamide] | – | – | 186 | > 10000 | –
18 | C[C@@](Cc1c[nH]c2ccccc12)(NS(=O)(=O)c1ccccc1Cl)C(=O)NCC1(c2ccccn2)CCCCC1 [Example 113, (S)-2-(2-chloro-benzenesulfonylamino)-3-(1H-indol-3-yl)-2-methyl-N-(1-pyridin-2-yl-cyclohexylmethyl)-propionamide] | – | – | 257 | > 10000 | –
19 | C[C@@](Cc1c[nH]c2ccccc12)(NS(=O)(=O)c1cccc2ccccc12)C(=O)NCC1(c2ccccn2)CCCCC1 [Example 115, (S)-3-(1H-indol-3-yl)-2-methyl-2-(naphthalene-1-sulfonylamino)-N-(1-pyridin-2-yl-cyclohexylmethyl)-propionamide] | – | – | 185 | 1580 | –
20 | C[C@@](Cc1c[nH]c2ccccc12)(NS(=O)(=O)c1ccc(Cl)cc1)C(=O)NCC1(c2ccccn2)CCCCC1 [Example 116] | – | – | 373 | 4390 | –
21 | C[C@@](Cc1c[nH]c2ccccc12)(NS(=O)(=O)c1cccc2cccnc12)C(=O)NCC1(c2ccccn2)CCCCC1 [Example 120, (S)-3-(1H-indol-3-yl)-2-methyl-N-(1-pyridin-2-yl-cyclohexylmethyl)-2-(quinoline-8-sulfonylamino)-propionamide] | – | – | 108 | > 10000 | –
22 | C[C@@](Cc1c[nH]c2ccccc12)(NS(=O)(=O)c1ccc(F)cc1)C(=O)NCC1(c2ccccn2)CCCCC1 [Example 122] | – | – | 560 | 4160 | –
23 | C[C@@](Cc1c[nH]c2ccccc12)(NS(=O)(=O)c1cccc(F)c1)C(=O)NCC1(c2ccccn2)CCCCC1 [Example 126] | – | – | 407 | 2760 | –
24 | C[C@@](Cc1c[nH]c2ccccc12)(NS(=O)(=O)c1cccc(Cl)c1)C(=O)NCC1(c2ccccn2)CCCCC1 [Example 130] | – | – | 331 | 2690 | –
25 | Cc1cccc(S(=O)(=O)N[C@@](C)(Cc2c[nH]c3ccccc23)C(=O)NCC2(c3ccccn3)CCCCC2)c1 [Example 131] | – | – | 393 | 1020 | –
26 | COc1cccc(S(=O)(=O)N[C@@](C)(Cc2c[nH]c3ccccc23)C(=O)NCC2(c3ccccn3)CCCCC2)c1 [Example 145] | – | – | 295 | 3690 | –
27 | Cc1ccc(Oc2ccccc2)c(S(=O)(=O)N[C@@](C)(Cc2c[nH]c3ccccc23)C(=O)NCC2(c3ccccn3)CCCCC2)c1 [Example 152, (S)-3-(1H-indol-3-yl)-2-methyl-2-(5-methyl-2-phenoxy-benzenesulfonylamino)-N-(1-pyridin-2-yl-cyclohexylmethyl)-propionamide] | – | – | 76 | > 10000 | –
28 | Cc1ccc(Oc2ccccc2S(=O)(=O)N[C@@](C)(Cc2c[nH]c3ccccc23)C(=O)NCC2(c3ccccn3)CCCCC2)cc1 [Example 153, (S)-3-(1H-indol-3-yl)-2-methyl-N-(1-pyridin-2-yl-cyclohexylmethyl)-2-(2-p-tolyloxy-benzenesulfonylamino)-propionamide] | – | – | 90 | > 10000 | –
29 | C[C@@](Cc1c[nH]c2ccccc12)(NS(=O)(=O)c1ccccc1-c1ccccc1)C(=O)NCC1(c2ccccn2)CCCCC1 [Example 154, (S)-2-(biphenyl-2-sulfonylamino)-3-(1H-indol-3-yl)-2-methyl-N-(1-pyridin-2-yl-cyclohexylmethyl)-propionamide] | – | – | 166 | > 10000 | –
30 | Cc1ccc(S(=O)(=O)N[C@@](C)(Cc2c[nH]c3ccccc23)C(=O)NCC2(c3ccccn3)CCCCC2)cc1Cl [Example 158] | – | – | 299 | 3940 | –
31 | (S)-3-(1H-Indol-3-yl)-2-methyl-N-(1-pyridin-2-yl-cyclohexylmethyl)-2-(2-p-tolyl-ethanoylamino)-propionamide [Example 51] | – | – | – | – | IC50 (human NMB receptor (BB1); [2]): 944 nM; IC50 (human GRP receptor (BB2); [2]): > 10000 nM
